The values below come from US12357596B2, “Compounds for prevention and treatment of obesity and related disorders” (ABREXA PHARMACEUTICALS, INC., priority 2019, dated 2025).

A short description of data set [1]: Toxicokinetics in satellite animals of the 28-day oral gavage study (plasma, Day 1). It counts as in vivo, Sprague-Dawley rats. The settings on record: Sprague-Dawley, rat, Day 1, 30 mg/kg/day (NOAEL), for information only (ISR failed). As to the method: J147 or vehicle was administered once daily to Sprague-Dawley rats via oral gavage for 28 consecutive days at a daily dose of 0, 30, 100 or 300 mg/kg. J174 was prepared in a vehicle formulation comprising 5% ethanol, 5% DMSO and 90% corn oil (v/v/v). Certified rodent diet and water was available ad libitum. Groups 1-4 contained 10 animals/sex/group. Groups 1 (control) and 4 (high dose) also included an additional 5 animals/sex/group for use as recovery animals. The recovery animals were maintained on study for a 14-day postdosing recovery period. Animals in Groups 1-4 were monitored for morbidity and mortality, clinical signs, detailed clinical observations, body weight, food consumption, ophthalmologic parameters, neurobehavioral assessment consisting of a Functional Observational Battery (FOB) and a motor activity test, hematology, coagulation, serum chemistry, and urinalysis parameters. Postmortem assessment included necropsy, measurement of selected organ weights, and microscopic evaluation of a standard set of tissues. Plasma samples for bioanalysis were collected on Days 1 and 28 from satellite toxicokinetic animals in Groups 5 through 8. Animals in these groups were euthanized following the last blood sampling and carcasses were discarded without examination. The study protocol is shown below in Table 1.
Additionally, analysis of Day 28 samples also occurred outside the known long-term stability (LTS) range of the validated bioanalytical method. Thus, the bioanalytical and toxicokinetic results for J147 are considered to be for information only. The bioanalytical and toxicokinetic analysis results should also be considered in light of the fact that Day 28 samples were analyzed outside of their LTS.
Given that there was clear evidence of toxicity at the mid and high dose groups, the Study Director believes that this study met the objective of examining the toxicity profile of J147. […] Under the conditions of this study, the no-observed-adverse-effect-level (NOAEL) for J147 was considered to be 30 mg/kg/day. […] Cmax and AUC0-last values should be considered in light of the caveats mentioned in the preceding paragraph. The lowest-observed-adverse-effect-level (LOAEL) is 100 mg/kg/day in both sexes based on test article-related decreases in body weight/body weight gain and food consumption, decreased activity, decreases in measures of red blood cell mass, decreased prothrombin time, decreased serum glucose and triglycerides, decreased thymus weights, and single cell necrosis of pancreatic acinar cells in males.

A short description of data set [2]: Oral gavage study up to 28 days at 0, 30, 100 and 300 mg/kg/day (body weight, food consumption). Type of data set: in vivo, beagle dogs. As to the method: J147 or vehicle was administered once daily to beagle dogs via oral gavage for up to 28 days at a daily dose of 0, 30, 100 and 300 mg/kg. J174 was prepared in a vehicle formulation comprising 5% ethanol, 5% DMSO and 90% corn oil (v/v/v). Block Lab Diet (Certified Canine Diet #5007, PMI Nutrition International, Inc.) was offered via limited feedings, except during designated periods. The animals were offered food 2 hours post-dose on each dosing day for 2 to 5 hours. Food was offered 2 to 5 hours/day during the acclimation period and during the recovery period. Tap water was available ad libitum via an automatic watering system. The study protocol is shown below in Table 9.

[3] abbreviates: dogs, all J147-treated groups (30, 100, 300 mg/kg/day), both sexes.
[4] abbreviates: female dogs, 30 mg/kg/day, Day 28.
Setting [5] is: female dogs, 100 mg/kg/day, Day 28.
Where [6] appears, read: female dogs, 300 mg/kg/day, Day 21 versus the Day 28 control value.
The mark [7] stands for this setting: male dogs, 30 mg/kg/day, Day 28.
Setting [8] is: male dogs, 100 mg/kg/day, Day 28.
[9] abbreviates: male dogs, 300 mg/kg/day, Day 22 versus the Day 28 control value.

A word on the AUC(0-t): it is the area under the concentration-time curve up to a stated or last time point. High values mean high exposure, low ones low exposure. What is called Cmax is the peak of the concentration-time curve.

As for `COc1cccc(/C=N/N(C(=O)C(F)(F)F)c2ccc(C)cc2C)c1` [J147], the values for the AUC(0-t) in data set [1] (female rats) and in data set [1] (male rats) were 233 ng·h/mL and 835 ng·h/mL, respectively. The peak concentration (Cmax) in data set [1] (female rats) was determined as 50.8 ng/mL; in data set [1] (male rats), 146 ng/mL. Moreover, in data set [2] (setting [3]), the “Body weight and body weight gain compared to the vehicle-treated control group” value is recorded as “decreased”. Moreover, the “Food consumption compared to the vehicle-treated control group” value in data set [2] (setting [3]) is given as “decreased”. Moreover, the “Decrease of group mean body weight” value in data set [2] (setting [4]) worked out at 19%; in data set [2] (setting [5]) it was 21%; in data set [2] (setting [6]), 23%; in data set [2] (setting [7]), 23%; in data set [2] (setting [8]) it was 26%; in data set [2] (setting [9]), 18%. Moreover, the “Decrease of group mean food consumption” value was 45% in data set [2] (setting [4]); 48% in data set [2] (setting [5]); 38% in data set [2] (setting [6]); 31% in data set [2] (setting [7]); 39% in data set [2] (setting [8]); 48% in data set [2] (setting [9]).
